Measurements from patent publication US11149033B2, “Heteroaryl compound, enantiomer, diastereomer or pharmaceutically acceptable salt thereof, and antiviral composition containing same as active ingredient” (priority 2016, dated 2021).

Columns and labels:
in vitro = conditions: CC50 B/Florida/04/2006, cytotoxicity in the B/Florida/04/2006 assay

SMILES | CC50 (in vitro) | melting point
Cc1ccccc1Sc1nnc(CCn2nc(C)c(Br)c2C)o1 [Compound 54, 2-(2-(4-bromo-3,5-dimethyl-1H-pyrazol-1-yl)ethyl)-5-(o-tolylthio)-1,3,4-oxadiazole] | > 50 µM | 103.6 °C
Cc1ccccc1CSc1ncc(C(=O)n2nc(C)c(Br)c2C)o1 [Compound 55, (4-bromo-3,5-dimethyl-1H-pyrazol-1-yl)(2-((2-methylbenzyl)thio)oxazol-5-yl)methanone] | > 50 µM | 123.6 °C
Cc1nn(C(=O)c2ccc(Sc3ccccc3C(C)C)o2)c(C)c1Br [Compound 56, (4-bromo-3,5-dimethyl-1H-pyrazol-1-yl)(5-((2-isopropylphenyl)thio)furan-2-yl)methanone] | > 50 µM | 169.7 °C
Cc1nn(C(=O)c2ccc(Oc3ccccc3C(C)C)o2)c(C)c1Br [Compound 57, (4-bromo-3,5-dimethyl-1H-pyrazol-1-yl)(5-(2-isopropylphenoxy)furan-2-yl)methanone] | > 50 µM | 103.3 °C
Cc1ccc(Br)cc1Cc1nnc(/C=C/c2ccc(F)cc2Cl)o1 [Compound 282, 2-(5-bromo-2-methylbenzyl)-5-(2-chloro-4-fluorostyryl)-1,3,4-oxadiazole] |  | 169.3 °C
Fc1ccc(/C=C/c2nnc(Cc3cc(Br)ccn3)o2)c(Cl)c1 [Compound 283, 2-((4-bromopyridin-2-yl)methyl)-5-(2-chloro-4-fluorostyryl)-1,3,4-oxadiazole] |  | 149.5 °C
Fc1cc(F)c(/C=C/c2nnc(Cc3cccc(Br)c3)o2)c(Br)c1 [Compound 290, 2-(2-bromo-4,6-difluorostyryl)-5-(3-bromobenzyl)-1,3,4-oxadiazole] |  | 118.2 °C
Fc1ccc(/C=C/c2nnc(Cc3cccc(Cl)c3F)o2)c(Cl)c1 [Compound 291, 2-(3-chloro-2-fluorobenzyl)-5-(2-chloro-4-fluorostyryl)-1,3,4-oxadiazole] |  | 118.1 °C
Fc1cc(Br)cc(Cc2nnc(/C=C/c3ccc(F)cc3Cl)o2)c1 [Compound 292, 2-(3-bromo-5-fluorobenzyl)-5-(2-chloro-4-fluorostyryl)-1,3,4-oxadiazole] |  | 143 °C
Fc1ccc(/C=C/c2nnc(Cc3cccc(Br)c3F)o2)c(Cl)c1 [Compound 293, 2-(3-bromo-2-fluorobenzyl)-5-(2-chloro-4-fluorostyryl)-1,3,4-oxadiazole] |  | 135.8 °C
Cc1c(Br)cccc1Cc1nnc(/C=C/c2ccc(F)cc2Cl)o1 [Compound 294, 2-(3-bromo-2-methylbenzyl)-5-(2-chloro-4-fluorostyryl)-1,3,4-oxadiazole] |  | 158.3 °C
Cc1ccc2cccc(Cc3nnc(/C=C/c4ccc(F)cc4Cl)o3)c2n1 [Compound 295, 2-(2-chloro-4-fluorostyryl)-5-((2-methylquinolin-8-yl)methyl)-1,3,4-oxadiazole] |  | 191.2 °C
COc1ccc2cccc(Cc3nnc(/C=C/c4ccc(F)cc4Cl)o3)c2c1 [Compound 298, 2-(2-chloro-4-fluorostyryl)-5-((7-methoxynaphthalen-1-yl)methyl)-1,3,4-oxadiazole] |  | 179.9 °C
Fc1ccc(/C=C/c2nnc(Cc3cccc(C(F)F)c3)o2)c(Cl)c1 [Compound 299, 2-(2-chloro-4-fluorostyryl)-5-(3-(difluoromethyl)benzyl)-1,3,4-oxadiazole] |  | 108.1 °C
Cc1ccc(Cc2nnc(/C=C/c3ccc(F)cc3Cl)o2)cc1Cl [Compound 300, 2-(2-chloro-4-fluorostyryl)-5-(3-chloro-4-methylbenzyl)-1,3,4-oxadiazole] |  | 161.4 °C
Cc1ccc(Cc2nnc(/C=C/c3ccc(F)cc3N(C)CCc3ccccc3)o2)cc1Br [Compound 305, 2-(2-(5-(3-bromo-4-methylbenzyl)-1,3,4-oxadiazol-2-yl)vinyl)-5-fluoro-N-methyl-N-phenethylaniline] |  | 80.7 °C
